Data reported in patent US20070093520A1, “Method of treatment of diarrhea-predominant irritable bowel syndrome in a subject” (priority 2005, published 2007).

System: diarrhea-predominant IBS subjects
Test: 3007 Study: open-label 52-week safety study, adverse events and withdrawals
Conditions: C/C group

Cc1nccn1C[C@H]1CCc2c(c3cccc4c3n2CCC4)C1=O [cilansetron, (R)-(−)-4,5,6,8,9,10-hexahydro-10-[(2-methyl-1H-imidazol-1-yl)methyl]-11H-pyrido-[3,2,1-jk]-carbazol-11-one]
2 (1%) n (%): TEAE: Endometriosis*
6 (2%) n (%): TEAE: Bladder and Urethral Symptoms | TEAE: Coughing and Associated Symptoms | TEAE: Disturbances in Initiating and Maintaining Sleep | TEAE: Ear and Labyrinth Disorders | TEAE: General Signs and Symptoms NEC
0 n (%): TEAE: Abdominal Therapeutic Procedures NEC | TEAE: Abdominoplasty | TEAE: Abnormal Chest Sounds NOS | TEAE: Acrochordons | TEAE: Age Related Issues | TEAE: Allergy to Insect Sting | TEAE: Alopecia | TEAE: Alopecias | TEAE: Anaemia NOS | TEAE: Anaemias NEC | TEAE: Apocrine and Eccrine Gland Disorders | TEAE: Behaviour and Socialisation Disturbances | TEAE: Benign Ovarian Tumour* | TEAE: Biliary Tract Disorder NOS | TEAE: Binocular Eye Movement Disorder NOS | TEAE: Bladder Disorders NEC | TEAE: Bladder Infections and Inflammations | TEAE: Bladder Prolapse | TEAE: Bradyarrhythmia | TEAE: Breast Calcifications* | TEAE: Breast Cancer NOS* | TEAE: Breast Disorder NOS* | TEAE: Breast and Nipple Neoplasms Malignant* | TEAE: Cardiac Fibrillation NOS | TEAE: Cardiac Flutter | TEAE: Chest Discomfort | TEAE: Congenital, Familial and Genetic Disorders | TEAE: Cystitis Interstitial | TEAE: Dermatitis Allergic | TEAE: Dermatitis Ascribed to Specific Agent | TEAE: Dermatitis Medicamentosa | TEAE: Dermatitis NOS | TEAE: Dermographism | TEAE: Dyshidrosis | TEAE: Fibroma NOS | TEAE: Fluid Intake Increased | TEAE: Food Allergy | TEAE: Gilbert's Syndrome | TEAE: Glucose Tolerance Impaired | TEAE: Glycosuria | TEAE: Hallucination NOS | TEAE: Hallucination, Auditory | TEAE: Hand Fracture | TEAE: Hernia NOS | TEAE: Hernias NEC | TEAE: Hyperglycaemia NOS | TEAE: Hyperglycaemic Conditions NEC | TEAE: Hyperkeratoses | TEAE: Hyperkeratosis | TEAE: Hypotension NOS | TEAE: Inborn Errors of Bilirubin Metabolism | TEAE: Ingrowing Nail | TEAE: Irritability
2 (<1%) n (%): TEAE: Anxiety Aggravated | TEAE: Basal Cell Carcinoma | TEAE: Breathing Abnormalities | TEAE: Cardiac Conduction Disorders | TEAE: Cardiac Signs and Symptoms NEC | TEAE: Cerumen Impaction | TEAE: Cholecystitis and Cholelithiasis | TEAE: Cholelithiasis | TEAE: Conjunctival Infections, Irritations and Inflammations | TEAE: Dermatitis and Eczema | TEAE: Diabetes Mellitus (Incl Subtypes) | TEAE: Dry Eye NOS | TEAE: Dyspnoea NOS | TEAE: Endocrine Disorders | TEAE: External Ear Disorders NEC | TEAE: Fall | TEAE: Febrile Disorders | TEAE: Gout | TEAE: Inner Ear Infections and Inflammations
3 (1%) n (%): TEAE: Angina Pectoris | TEAE: Anxiety | TEAE: Blood and Lymphatic System Disorders | TEAE: Bronchospasm and Obstruction | TEAE: Calculus Renal NOS | TEAE: Chest Pain | TEAE: Depression Aggravated | TEAE: Elevated Cholesterol | TEAE: Hypercholesterolaemia | TEAE: Influenza Like Illness
23 (9%) n (%): TEAE: General Disorders and Administration Site Conditions
7 (3%) n (%): TEAE: Depressive Disorders | TEAE: Fatigue | TEAE: Hypertension NOS
10 (4%) n (%): TEAE: Cardiac Disorders
5 (2%) n (%): TEAE: Anxiety Symptoms | TEAE: Cough | TEAE: Immune System Disorders | TEAE: Insomnia
8 (3%) n (%): TEAE: Asthenic Conditions | TEAE: Eye Disorders
4 (2%) n (%): TEAE: Atopic Disorders | TEAE: Depression | TEAE: Haematuria | TEAE: Hepatobiliary Disorders | TEAE: Ischaemic Coronary Artery Disorders
1 (<1%) n (%): TEAE: Acne NOS | TEAE: Acnes | TEAE: Acquired Hypothyroidism | TEAE: Adenomyosis* | TEAE: Allergic Conditions NEC | TEAE: Allergies to Foods, Food Additives, Drugs and Other Chemicals | TEAE: Amenorrhoea NOS* | TEAE: Anorexia | TEAE: Appetite Disorders | TEAE: Arrhythmia NOS | TEAE: Asthma Aggravated | TEAE: Asthma NOS | TEAE: Atrial Fibrillation | TEAE: Atrioventricular Block First Degree | TEAE: Bone Neoplasm Malignant | TEAE: Bone Neoplasms Malignant (Excl Sarcomas) | TEAE: Breast Disorders NEC* | TEAE: Breast Mass NOS* | TEAE: Breath Sounds Decreased | TEAE: Bruising, Ecchymosis and Purpura | TEAE: Bundle Branch Block Right | TEAE: Calculus Ureteric | TEAE: Cataract Unilateral | TEAE: Cataracts (Excl Congenital) | TEAE: Chest Tightness | TEAE: Conjunctivitis | TEAE: Conjunctivitis Allergic | TEAE: Contusion | TEAE: Cyst NOS | TEAE: Dacryostenosis Acquired | TEAE: Deafness NOS | TEAE: Dehydration | TEAE: Dermal and Epidermal Conditions NEC | TEAE: Dermatitis Contact | TEAE: Diabetes Mellitus Aggravated | TEAE: Diabetes Mellitus Non-Insulin-Dependent | TEAE: Drug Hypersensitivity | TEAE: Dysfunctional Uterine Bleeding* | TEAE: Dysuria | TEAE: Ear Disorders NEC | TEAE: Ear Pain | TEAE: Eczema | TEAE: Erythema | TEAE: Erythemas | TEAE: Fatigue Aggravated | TEAE: Fluid in Middle Ear | TEAE: Flushing | TEAE: Goitre | TEAE: Haematoma NOS | TEAE: Hearing Losses | TEAE: Hepatitis NOS | TEAE: Hepatobiliary Signs and Symptoms | TEAE: Hepatocellular Damage and Hepatitis NEC | TEAE: Hepatosplenomegaly NOS | TEAE: Hernia Repair NOS | TEAE: Hernia Repairs | TEAE: Hot Flushes NOS | TEAE: Hyperlipidaemia NOS | TEAE: Hyperlipidaemias NEC | TEAE: Hypersensitivity NOS | TEAE: Hypertension Aggravated | TEAE: Inner Ear Disorders NEC | TEAE: Inner Ear Signs and Symptoms | TEAE: Insomnia Exacerbated | TEAE: Intermenstrual Bleeding*
